Test results reported in US10227323B2, “Glucosylceramide synthase inhibitors for the treatment of diseases” (BIOMARIN PHARMACEUTICAL INC., priority 2013, dated 2019).
Like-named read-outs stand apart in the source and are kept apart here.

Target: T1, GCS (Canis lupus familiaris, UniProt A0A8I3MXG6)
T1 sequence (A0A8I3MXG6 1-394): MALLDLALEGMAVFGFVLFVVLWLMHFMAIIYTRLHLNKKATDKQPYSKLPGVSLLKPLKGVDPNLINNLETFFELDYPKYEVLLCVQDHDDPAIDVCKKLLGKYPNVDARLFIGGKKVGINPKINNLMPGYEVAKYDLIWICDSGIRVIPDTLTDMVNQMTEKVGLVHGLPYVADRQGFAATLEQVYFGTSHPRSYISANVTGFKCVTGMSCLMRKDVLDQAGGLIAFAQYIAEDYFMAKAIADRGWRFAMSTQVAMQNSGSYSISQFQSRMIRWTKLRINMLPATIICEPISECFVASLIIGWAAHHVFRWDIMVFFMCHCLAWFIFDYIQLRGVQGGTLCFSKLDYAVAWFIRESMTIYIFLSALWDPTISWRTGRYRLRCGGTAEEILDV
Test: Assay 1: GCS Enzymatic Assay (MDCK cell lysate, C6-NBD-Ceramide, LC/MS)
Format: biochemical, canine
Conditions: for IC50: read-out: IC50 (nM) generated from Assay 1; for % inhibition generated from Assay 1: data marked by *
How it was run: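 LC/MS/MS measurement of glucosylceramide and NBD-ceramide after a 1 h, 37 °C reaction with 100 μM UDP-glucose and 10 μM C6-NBD-ceramide gave IC50s or percent inhibition.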

Structure (SMILES) | IC50 (Table 2, data without asterisk) | also measured
O=C(N[C@H](CN1CCCC1)[C@H](O)c1ccc(OC2CC2)c(Cl)c1)C(F)(F)c1cc2cc(C(F)(F)F)ccc2o1 [Compound 69, N-((1R,2R)-1-(3-chloro-4-cyclopropoxyphenyl)-1-hydroxy-3-(pyrrolidin-1-yl)propan-2-yl)-2,2-difluoro-2-(5-(trifluoromethyl)benzofuran-2-yl)acetamide] |  | IC50 (Table 1, MDCK cell lysate): < 50 nM
O=C(N[C@H](CN1CCCC1)[C@@H](O)c1ccc(OC2CC2)c(Cl)c1)C(F)(F)c1cc2cc(C(F)(F)F)ccc2o1 [Compound 69A, N-((1S,2R)-1-(3-chloro-4-cyclopropoxyphenyl)-1-hydroxy-3-(pyrrolidin-1-yl)propan-2-yl)-2,2-difluoro-2-(5-(trifluoromethyl)benzofuran-2-yl)acetamide] |  | IC50 (Table 1, MDCK cell lysate): 50 to 5000 nM
O=C(N[C@H](CN1CCCC1)[C@H](O)c1ccc2c(c1)OCCO2)C(=O)C1Cc2ccccc2C1 [Compound 70, 2-(2,3-dihydro-1H-inden-2-yl)-N-((1R,2R)-1-(2,3-dihydrobenzo[b][1,4]dioxin-6-yl)-1-hydroxy-3-(pyrrolidin-1-yl)propan-2-yl)-2-oxoacetamide] |  | IC50 (Table 1, MDCK cell lysate): < 50 nM
O=C(N[C@H](CN1CCCC1)[C@H](O)c1ccc2c(c1)OCCO2)C(=O)c1cc2cc(Cl)ccc2o1 [Compound 71, 2-(5-chlorobenzofuran-2-yl)-N-((1R,2R)-1-(2,3-dihydrobenzo[b][1,4]dioxin-6-yl)-1-hydroxy-3-(pyrrolidin-1-yl)propan-2-yl)-2-oxoacetamide] |  | IC50 (Table 1, MDCK cell lysate): < 50 nM
O=C(N[C@H](CN1CCCC1)[C@H](O)c1ccc2c(c1)OCCO2)/C(=N/O)c1cc2cc(Cl)ccc2o1 [Compound 72, (E)-2-(5-chlorobenzofuran-2-yl)-N-((1R,2R)-1-(2,3-dihydrobenzo[b][1,4]dioxin-6-yl)-1-hydroxy-3-(pyrrolidin-1-yl)propan-2-yl)-2-(hydroxyimino)acetamide] |  | IC50 (Table 1, MDCK cell lysate): < 50 nM
O=C(N[C@H](CN1CCCC1)[C@H](O)c1ccc2c(c1)OCCO2)C(=O)C1Cc2ccc(-c3ccccn3)cc2C1 (stereo partly drawn) [Compound 73, N-((1R,2R)-1-(2,3-dihydrobenzo[b][1,4]dioxin-6-yl)-1-hydroxy-3-(pyrrolidin-1-yl)propan-2-yl)-2-oxo-2-(5-(pyridin-2-yl)-2,3-dihydro-1H-inden-2-yl)acetamide] |  | IC50 (Table 1, MDCK cell lysate): < 50 nM
O=C(N[C@H](CN1CCCC1)[C@H](O)c1ccc2c(c1)OCCO2)C(=O)C1Cc2ccc(Cl)cc2C1 (stereo partly drawn) [Compound 74, 2-(5-chloro-2,3-dihydro-1H-inden-2-yl)-N-((1R,2R)-1-(2,3-dihydrobenzo[b][1,4]dioxin-6-yl)-1-hydroxy-3-(pyrrolidin-1-yl)propan-2-yl)-2-oxoacetamide] |  | IC50 (Table 1, MDCK cell lysate): < 50 nM
O=C(N[C@H](CN1CCCC1)[C@H](O)c1ccc2c(c1)OCCO2)C(=O)c1[nH]cc2c1CCCC2 [Compound 77, N-((1R,2R)-1-(2,3-dihydrobenzo[b][1,4]dioxin-6-yl)-1-hydroxy-3-(pyrrolidin-1-yl)propan-2-yl)-2-oxo-2-(4,5,6,7-tetrahydro-2H-isoindol-1-yl)acetamide] |  | % inhibition generated from Assay 1 (Table 2): B* (the compound had a % inhibition of greater than or equal to about 3% but less than about 50%)
O=C(N[C@H](CN1CCC1)[C@H](O)c1ccc2c(c1)OCCO2)C(=O)c1cc2cc(Cl)ccc2o1 [Compound 78, N-((1R,2R)-3-(azetidin-1-yl)-1-(2,3-dihydrobenzo[b][1,4]dioxin-6-yl)-1-hydroxypropan-2-yl)-2-(5-chlorobenzofuran-2-yl)-2-oxoacetamide] | < 50 nM | 
O=C(N[C@H](CN1CCCC1)[C@H](O)c1ccc(OC2CC2)c(Cl)c1)C(=O)c1cc2cc(Cl)ccc2o1 [Compound 79, N-((1R,2R)-1-(3-chloro-4-cyclopropoxyphenyl)-1-hydroxy-3-(pyrrolidin-1-yl)propan-2-yl)-2-(5-chlorobenzofuran-2-yl)-2-oxoacetamide] | < 50 nM | 
O=C(N[C@H](CN1CCCC1)[C@H](O)c1ccc(OC2CC2)c(Cl)c1)C(F)(F)CCc1ccc2cc(F)ccc2c1 [Compound 82, N-((1R,2R)-1-(3-chloro-4-cyclopropoxyphenyl)-1-hydroxy-3-(pyrrolidin-1-yl)propan-2-yl)-2,2-difluoro-4-(6-fluoronaphthalen-2-yl)butanamide] | < 50 nM | 
O=C(N[C@H](CN1CCC1)[C@H](O)c1cc(F)c2c(c1)OCCO2)C(F)(F)c1cc2cc(Cl)ccc2o1 [Compound 83, N-((1R,2R)-3-(azetidin-1-yl)-1-(8-fluoro-2,3-dihydrobenzo[b][1,4]dioxin-6-yl)-1-hydroxypropan-2-yl)-2-(5-chlorobenzofuran-2-yl)-2,2-difluoroacetamide] | < 50 nM | 
O=C(N[C@H](CN1CCCC1)[C@H](O)c1ccc2c(c1)OCCO2)C(F)(F)CCc1ccc2cc(F)ccc2c1 [Compound 84, N-((1R,2R)-1-(2,3-dihydrobenzo[b][1,4]dioxin-6-yl)-1-hydroxy-3-(pyrrolidin-1-yl)propan-2-yl)-2,2-difluoro-4-(6-fluoronaphthalen-2-yl)butanamide] | < 50 nM | 
O=C(N[C@H](CN1CCCC1)[C@H](O)c1ccc(OCC(F)(F)F)nc1)C(F)(F)c1cc2cc(Cl)ccc2o1 [Compound 85, 2-(5-chlorobenzofuran-2-yl)-2,2-difluoro-N-((1R,2R)-1-hydroxy-3-(pyrrolidin-1-yl)-1-(6-(2,2,2-trifluoroethoxy)pyridin-3-yl)propan-2-yl)acetamide] | < 50 nM | 
O=C(N[C@H](CN1CCC1)[C@H](O)c1cc(F)c2c(c1)OCCO2)C(F)(F)CCc1ccc2cc(F)ccc2c1 [Compound 86, N-((1R,2R)-3-(azetidin-1-yl)-1-(8-fluoro-2,3-dihydrobenzo[b][1,4]dioxin-6-yl)-1-hydroxypropan-2-yl)-2,2-difluoro-4-(6-fluoronaphthalen-2-yl)butanamide] | < 50 nM | 
O=C(N[C@H](CN1CCCC1)[C@H](O)c1cc(F)c2c(c1)OCCO2)C(F)(F)CCc1ccc2cc(F)ccc2c1 [Compound 87, 2,2-difluoro-N-((1R,2R)-1-(8-fluoro-2,3-dihydrobenzo[b][1,4]dioxin-6-yl)-1-hydroxy-3-(pyrrolidin-1-yl)propan-2-yl)-4-(6-fluoronaphthalen-2-yl)butanamide] | < 50 nM | 
O=C(N[C@H](CN1CCCC1)[C@H](O)c1ccc(OCC(F)(F)F)nc1)C(F)(F)CCc1ccc2cc(F)ccc2c1 [Compound 88, 2,2-difluoro-4-(6-fluoronaphthalen-2-yl)-N-((1R,2R)-1-hydroxy-3-(pyrrolidin-1-yl)-1-(6-(2,2,2-trifluoroethoxy)pyridin-3-yl)propan-2-yl)butanamide] |  | % inhibition generated from Assay 1 (Table 2): A* (the compound had a % inhibition of a percent inhibition of greater than or equal to about 50%)
O=C(N[C@H](CN1CCC1)[C@H](O)c1cc(F)c2c(c1)OCCO2)C(=O)c1cc2cc(Cl)ccc2o1 [Compound 89, N-((1R,2R)-3-(azetidin-1-yl)-1-(8-fluoro-2,3-dihydrobenzo[b][1,4]dioxin-6-yl)-1-hydroxypropan-2-yl)-2-(5-chlorobenzofuran-2-yl)-2-oxoacetamide] | < 50 nM | 
O=C(CCc1ccc2cc(F)ccc2c1)C(=O)N[C@H](CN1CCCC1)[C@H](O)c1ccc2c(c1)OCCO2 [Compound 90, N-((1R,2R)-1-(2,3-dihydrobenzo[b][1,4]dioxin-6-yl)-1-hydroxy-3-(pyrrolidin-1-yl)propan-2-yl)-4-(6-fluoronaphthalen-2-yl)-2-oxobutanamide] | < 50 nM | 
O=C(N[C@H](CN1CCCC1)[C@H](O)c1ccc(OCC(F)(F)F)nc1)C(F)(F)C1Cc2ccc(Cl)cc2C1 (stereo partly drawn) [Compound 91, 2-(5-chloro-2,3-dihydro-1H-inden-2-yl)-2,2-difluoro-N-((1R,2R)-1-hydroxy-3-(pyrrolidin-1-yl)-1-(6-(2,2,2-trifluoroethoxy)pyridin-3-yl)propan-2-yl)acetamide] |  | % inhibition generated from Assay 1 (Table 2): B* (the compound had a % inhibition of greater than or equal to about 3% but less than about 50%)
O=C(N[C@H](CN1CCC1)[C@H](O)c1cc(F)c2c(c1)OCCO2)C(F)(F)C1Cc2ccc(Cl)cc2C1 (stereo partly drawn) [Compound 92, N-((1R,2R)-3-(azetidin-1-yl)-1-(8-fluoro-2,3-dihydrobenzo[b][1,4]dioxin-6-yl)-1-hydroxypropan-2-yl)-2-(5-chloro-2,3-dihydro-1H-inden-2-yl)-2,2-difluoroacetamide] | < 50 nM | 
O=C(N[C@H](CN1CCCC1)[C@H](O)c1cc(F)c2c(c1)OCCO2)C(F)(F)C1Cc2ccc(Cl)cc2C1 (stereo partly drawn) [Compound 93, 2-(5-chloro-2,3-dihydro-1H-inden-2-yl)-2,2-difluoro-N-((1R,2R)-1-(8-fluoro-2,3-dihydrobenzo[b][1,4]dioxin-6-yl)-1-hydroxy-3-(pyrrolidin-1-yl)propan-2-yl)acetamide] | < 50 nM | 
CC(C)Oc1ccc([C@@H](O)[C@@H](CN2CCCC2)NC(=O)C(F)(F)c2cc3cc(Cl)ccc3o2)cc1Cl [Compound 94, N-((1R,2R)-1-(3-chloro-4-isopropoxyphenyl)-1-hydroxy-3-(pyrrolidin-1-yl)propan-2-yl)-2-(5-chlorobenzofuran-2-yl)-2,2-difluoroacetamide] | < 50 nM | 
O=C(N[C@H](CN1CCCC1)[C@H](O)c1cc(F)c2c(c1)OCCO2)C(=O)c1cc2cc(Cl)ccc2o1 [Compound 95, 2-(5-chlorobenzofuran-2-yl)-N-((1R,2R)-1-(8-fluoro-2,3-dihydrobenzo[b][1,4]dioxin-6-yl)-1-hydroxy-3-(pyrrolidin-1-yl)propan-2-yl)-2-oxoacetamide] | < 50 nM | 
